Experiments:
α1-GABAA receptor = assay: Ligand-binding assay, radiolabeled flumazenil competition, cerebellum membranes; set-up: species or system rat; settings: for Affinity for the α1-subunit of the GABAA receptor, % inhibition: rat cerebellum membranes, radiolabeled flumazenil 1 nM
Experimental: (§1) a) Ligand-binding Assays. Determination of the Affinity of Test Compounds for α1- and α2-GABAA, Receptor
(§2) Male Sprague-Dawley rats weighing 200-250 g at the time of experiment were used. After decapitation of the animal, the cerebellum (tissue that mostly contains α1-GABAA receptor) and spinal cord (tissue that mostly contains α2-GABAA receptor) were removed. The membranes were prepared according to the method by J. Lameh et al. (Prog. Neuro-Psychopharmacol. Biol. Psychiatry, 24, 979-991, 2000) and H. Noguchi et al. (Eur J Pharm, 434, 21-28, 2002) with slight modifications. Once the tissues weighed, they were suspended in 50 mM Tris.HCl (pH 7.4), 1:40 (v/v), or sucrose 0.32 M in the case of spinal cord, homogenized and then centrifuged at 20,000 g for 10 min at 7° C. The resulting pellet was resuspended under the same conditions and centrifuged again. The pellet was finally resuspended on a minimum volume and kept at −80° C. overnight. On the next day, the process was repeated until the final pellet was resuspended at a ratio of 1:10 (v/v) in the case of cerebellum and at a ratio of 1:5 (v/v) in the case of spinal cord.
(§3) Affinity was determined by competitive tests using radiolabeled flumazenil as ligand. The tests were performed according to the methods described by S. Arbilla et al. (Eur. J. Pharmacol., 130, 257-263, 1986); and Y. Wu et al. (Eur. J. Pharmacol., 278, 125-132, 1995) using 96-well microtiter plates. The membranes containing the study receptors, flumazenil (radiolabeling at a final concentration of 1 nM) and ascending concentrations of test compounds (in a total volume of 230 μL in 50 mM [pH 7.4] Tris.HCl buffer) were incubated. Simultaneously, the membranes were only incubated with the radiolabeled flumazenil (total binding, 100%) and in the presence of an elevated concentration of unradiolabeled flumazenil (non-specific binding, % estimation of radiolabeled ligand). The reactions started on adding the radiolabeled ligand followed by incubation for 60 minutes at 4° C. At the end of the incubation period, 200 μL of reaction were transferred to a multiscreen plate (Millipore) and filtered using a vacuum manifold and then washed three times with cold test buffer. The multiscreen plates were equipped with a GF/B filter that retained the membranes containing the receptors and the radiolabeled ligand which had been bound to the receptors. After washing, the plates were left till dry. Once dried, scintillation liquid was added and left under stirring overnight. The next day the plates were counted using a Perkin-Elmer Microbeta scintillation counter.
(§4) For analysis of the results the percentage of specific binding for every concentration of test compound was calculated as follows:
(§5) % specific binding=(X−N/T−N)×100
(§6) where, X: amount of bound ligand for every concentration of compound. T: total binding, maximum amount bound to the radiolabeled ligand. N: non-specific binding, amount of radiolabeled ligand bound in a non-specific way irrespective of the receptor used.
(§7) Every concentrations of compound were tested in triplicate and their mean values were used to determine the experimental values of % specific binding versus the concentration of compound. Affinity data are expressed as % inhibition at 10^−5M and 10^−7M concentrations.

α2-GABAA receptor = assay: Ligand-binding assay, radiolabeled flumazenil competition, spinal cord membranes; set-up: species or system rat; settings: rat spinal cord membranes, radiolabeled flumazenil 1 nM
Experimental: as §1, §2, §3, §4, §5, §6, §7

[1] = tested on: spontaneous motor activity of male CD1 mice; assay: In vivo predictive sedation-hypnosis test (traveled distance); settings: Mus musculus, ip, 0.5 h, 98 μmol/kg, single intraperitoneal dose, 30 minutes after dosing (first 5 min discarded), versus control
Experimental: b) In Vivo Determination of Predictive Sedative-Hypnotic Action
The in vivo effects of these compounds were assessed by a predictive sedation-hypnosis test in mice (D. J. Sanger et al., Eur. J. Pharmacol., 313, 35-42, 1996; and G. Griebel et al., Psychopharmacology, 146, 205-213, 1999).
Groups of 5-8 male CD1 mice, weighing 22-26 g at the time of test, were used. The test compounds were administered in single equimolecular intraperitoneal doses, suspended in 0.25% agar with one drop of Tween in a volume of 10 mL/kg. Control animals received the vehicle alone. Using a Smart System (Panlab, S. L., Spain) the traveled distance in cm was recorded for each mouse at 5 min intervals during a period of 30 minutes after dosing. The inhibition percentage traveled distance of treated animals versus control animals (the first 5 min were discarded) was calculated.

Row | Structure (SMILES) | Affinity for the α1-subunit of the GABAA receptor, % inhibition (α1-GABAA receptor; 10^−5M) [%] | Affinity for the α1-subunit of the GABAA receptor, % inhibition (α1-GABAA receptor; 10^−7M) [%] | α1-/α2-selectivity (in words) (α1-GABAA receptor; compared with zolpidem) | Affinity for the α2-subunit of the GABAA receptor, % inhibition (α2-GABAA receptor; 10^−5M) [%] | Affinity for the α2-subunit of the GABAA receptor, % inhibition (α2-GABAA receptor; 10^−7M) [%] | inhibition in vivo at 98 µmol/kg [1] [%]
1 | Cc1ccc2c(=O)c(-c3ccccc3)cn(CC(=O)N3CCCC3)c2c1 [Example 18, 7-Methyl-1-(2-oxo-2-pyrrolidin-1-yl-ethyl)-3-phenyl-1H-quinolin-4-one] | 86.2 | 7.5 | higher α1-/α2-selectivity than the most selective therapeutically used compound zolpidem | 66.3 | 0.0 | 84.5
2 | CCCN(CCC)C(=O)Cn1cc(-c2ccccc2)c(=O)c2ccccc21 [Example 47, 2-(4-Oxo-3-phenyl-4H-quinolin-1-yl)-N,N-dipropyl-acetamide] | 88.1 | 2.3 | – | 68.9 | 0.0 | 74.7
3 | C=CCN(CC=C)C(=O)Cn1cc(-c2ccc(OC)cc2)c(=O)c2ccc(C)cc21 [Example 97, N,N-Diallyl-2-[3-(4-methoxy-phenyl)-7-methyl-4-oxo-4H-quinolin-1-yl]-acetamide] | 90.7 | 4.9 | – | 62.0 | 0.0 | 76.8
4 | Cc1ccc2c(=O)c(-c3ccccc3)cn(CC(=O)N3C(C)C=CC3C)c2c1 (stereo not drawn) [Example 42, 1-[2-(2,5-Dimethyl-2,5-dihydro-pyrrol-1-yl)-2-oxo-ethyl]-7-methyl-3-phenyl-1H-quinolin-4-one] | 97.0 | 25.6 | – | 74.1 | 0.0 | 92.2

Source: patent US20100168099A1, “1H-QUINOLIN-4-ONE COMPOUNDS, WITH AFFINITY FOR THE GABA RECEPTOR, PROCESSES, USES AND COMPOSITIONS” (FERRER INTERNACIONAL, S.A., priority 2006, published 2010)
